{"source": "patent US20070009568A1", "about": "“METHODS FOR IMMOBILIZING MOLECULES ON SURFACES” (priority 2005, published 2007)", "tested_on": "fibroblasts", "experiment": "Fibroblast attachment to tresylated titanium wire grafted with P-15", "assay_type": "cell-based", "conditions": "then P-15 1 mg/ml in 100 mM phosphate buffer pH 7.4 overnight, compared with control wire not exposed to P-15", "experimental": "In this Example, titanium wire was treated with tresylation and attachment of P-15, followed by exposure to fibroblasts. The titanium wire was washed thoroughly in ethanol, then soaking in a 0.1 N NaOH solution for 15 minutes, followed by washing 10× with DI H2O. The surface was then rinsed in full strength H2O2, then soaked in 50% H2O2 overnight. The wire was then placed in a tresylation reaction mixture of trifluoroethanesulfonyl chloride (200 ul), pyridine (1.0 ml), and tetrahydrofuran (20 ml) overnight, followed by washing in DI H2O. The surface was then placed in a solution containing P-15 1 mg/ml in 100 mM phosphate buffer, pH 7.4, overnight. Following this treatment, the wire was again rinsed in DI H2O, then placed in a cell culture which contained fibroblasts that had been fluorescently labeled for 24 hours.\nAs a control, a second titanium wire was treated identically to the first wire, described above, except that it was not exposed to P-15 before being exposed to the fluorescently-labeled cells.", "note": "Entries after “also recorded” stand apart in the source; their conditions may differ."}
{"substance": "G-T-P-G-P-Q-G-I-A-G-Q-R-G-V-V (GTPGPQGIAGQRGVV) [P-15, collagen receptor agonist]", "values": [{"measurement": "attachment of fluorescently labeled fibroblasts to the wire (photomicrographs, FIG. 1)", "result": "increased fibroblast binding; also recorded: far more attached cells"}]}
